Data: patent US9951044B2, “Quinazoline derivatives and their use as DNA methyltransferase inhibitors” (PIERRE FABRE MEDICAMENT, priority 2013, dated 2018)

Experiments:
[1] = target: T1, His-DNMT1 (182 kDa, human) (Homo sapiens, UniProt P26358); assay: DNMT1 assay ([methyl-3H] SAM Flashplate); format: biochemical; details: for inhibition at 32 µM: compound at 32 μM, read-out: DNMT1 (% of inhibition) 32 μM; for inhibition at 100 µM: compound at 100 μM, read-out: DNMT1 (% of inhibition) 100 μM
T1 construct: His; made in house
T1 sequence (P26358 whole entry): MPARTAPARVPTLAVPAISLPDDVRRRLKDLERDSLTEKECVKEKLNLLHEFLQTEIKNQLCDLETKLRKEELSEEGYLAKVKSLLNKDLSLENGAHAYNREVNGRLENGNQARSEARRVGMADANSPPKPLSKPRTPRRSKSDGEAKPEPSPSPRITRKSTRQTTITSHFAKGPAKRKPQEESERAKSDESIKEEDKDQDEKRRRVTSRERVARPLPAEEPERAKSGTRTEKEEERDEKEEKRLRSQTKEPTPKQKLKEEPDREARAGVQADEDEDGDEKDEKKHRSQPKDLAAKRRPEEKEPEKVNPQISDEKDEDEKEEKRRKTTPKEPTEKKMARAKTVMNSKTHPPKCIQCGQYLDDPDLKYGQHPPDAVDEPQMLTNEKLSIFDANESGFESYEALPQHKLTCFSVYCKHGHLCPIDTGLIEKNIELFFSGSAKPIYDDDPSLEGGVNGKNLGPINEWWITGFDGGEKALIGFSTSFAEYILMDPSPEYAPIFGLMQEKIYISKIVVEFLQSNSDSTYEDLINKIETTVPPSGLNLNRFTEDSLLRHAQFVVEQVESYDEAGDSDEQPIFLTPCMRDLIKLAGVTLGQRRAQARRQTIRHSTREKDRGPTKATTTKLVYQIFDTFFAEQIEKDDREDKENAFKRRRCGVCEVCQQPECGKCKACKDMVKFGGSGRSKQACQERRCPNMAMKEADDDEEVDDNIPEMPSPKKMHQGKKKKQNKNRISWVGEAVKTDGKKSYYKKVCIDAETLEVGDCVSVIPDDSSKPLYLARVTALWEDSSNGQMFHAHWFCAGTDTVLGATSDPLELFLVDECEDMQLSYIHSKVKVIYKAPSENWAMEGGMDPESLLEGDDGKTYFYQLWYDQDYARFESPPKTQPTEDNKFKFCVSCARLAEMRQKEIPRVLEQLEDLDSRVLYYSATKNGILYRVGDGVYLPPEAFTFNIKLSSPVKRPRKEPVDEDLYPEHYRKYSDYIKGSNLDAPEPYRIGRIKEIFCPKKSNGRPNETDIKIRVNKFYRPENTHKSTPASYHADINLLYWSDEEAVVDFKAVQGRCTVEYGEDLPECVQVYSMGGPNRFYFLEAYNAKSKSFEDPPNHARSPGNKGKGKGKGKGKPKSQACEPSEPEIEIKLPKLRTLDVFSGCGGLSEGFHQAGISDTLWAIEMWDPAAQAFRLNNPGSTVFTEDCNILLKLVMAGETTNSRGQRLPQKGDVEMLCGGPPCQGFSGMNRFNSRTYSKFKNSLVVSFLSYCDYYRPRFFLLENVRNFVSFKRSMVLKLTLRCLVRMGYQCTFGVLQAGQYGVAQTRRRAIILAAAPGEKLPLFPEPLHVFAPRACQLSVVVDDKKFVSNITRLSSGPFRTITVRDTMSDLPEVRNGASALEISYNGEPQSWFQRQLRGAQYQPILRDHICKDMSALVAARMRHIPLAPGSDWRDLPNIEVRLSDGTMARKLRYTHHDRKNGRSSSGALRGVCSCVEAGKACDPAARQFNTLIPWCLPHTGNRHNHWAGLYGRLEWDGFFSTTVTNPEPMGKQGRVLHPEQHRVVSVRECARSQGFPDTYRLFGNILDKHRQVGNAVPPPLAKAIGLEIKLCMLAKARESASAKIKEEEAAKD
Experimental: His-DNMT1 (182 kDa, human) was cloned, expressed and purified as described in Halby et al. (ChemBioChem 2012, 13, 157-65). The reaction was performed in a 10 μL total reaction volume in low volume NBS™ 384-well microplates (Corning), containing the tested compound (up to 1% DMSO), 1 μM of a SAM/[methyl-^3H] SAM (3 TBq/mmol, PerkinElmer) mix in a ratio of 3-to-1 (isotopic dilution 1*:3), 0.3 μM of biotinylated hemimethylated DNA duplex (5′-GATmCGCmCGATGmCGmCGAATmCGmCGAT mCGATGmCGAT-3′ and BIOT-5′-[…] ATC-3′), and 90 nM of DNMT1 in methylation buffer (20 mM HEPES pH 7.2, 1 mM EDTA, 50 mM KCl, 25 μg/mL BSA). The reaction was incubated at 37° C. for 2 hours. 8 μL are then transferred into a streptavidin 96-well scintillant coated Flashplate™ (PerkinElmer) containing 190 μL of 20 μM SAH in 50 mM Tris-HCl pH 7.4. The Flashplate™ was agitated at room temperature for 1 hour, washed three times with 200 μL of 0.05% Tween®-20 in 50 mM Tris-HCl pH 7.4, and read in 200 μL of 50 mM Tris-HCl pH 7.4 on TopCount NXT (PerkinElmer).

[2] = target: T2, human C-terminal DNMT3A (a.a. 623-908) (Homo sapiens, UniProt Q9Y6K1); assay: DNMT3A assay (restriction-based fluorescence); format: biochemical; details: for inhibition at 10 µM: compound at 10 μM, read-out: DNMT3A (% of inhibition) 10 μM; for inhibition at 20 µM: compound at 20 μM; for EC50: concentration range in triplicates; for inhibition at 32 µM: compound at 32 μM, read-out: DNMT3A (% of inhibition) 32 μM
T2 construct: The human C-terminal DNMT3A (a.a. 623-908); made in house
T2 sequence (Q9Y6K1 627-912 limits assumed): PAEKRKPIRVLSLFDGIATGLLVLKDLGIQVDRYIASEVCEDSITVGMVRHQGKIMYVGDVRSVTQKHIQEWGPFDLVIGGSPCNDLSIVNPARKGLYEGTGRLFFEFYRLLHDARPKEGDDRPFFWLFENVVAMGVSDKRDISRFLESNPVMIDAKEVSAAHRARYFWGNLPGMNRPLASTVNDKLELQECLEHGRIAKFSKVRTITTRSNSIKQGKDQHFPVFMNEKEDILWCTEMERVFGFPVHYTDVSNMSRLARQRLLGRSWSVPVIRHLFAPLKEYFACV
Source text: DNMT3A enzyme inhibition was adapted from the restriction-based fluorescence assay protocol described in Ceccaldi et al. (ChemBioChem 2011, 12, 1337-45). Briefly, a 5′-labelled biotin oligonucleotide is hybridized to its complementary strand labelled with 6-carboxyfluorescein at the 3′-end into a 384 well microplate (black Optiplates; Perkin Elmer) pre-coated with avidin. The duplex contains a unique CpG site overlapping with a restriction site of a methylation sensitive restriction enzyme. The human C-terminal DNMT3A (a.a. 623-908), produced as described in Gros et al. (Nucleic Acids Research 2013 Aug. 25), was added in each well (200 ng/well) and mixed with the chemical compounds at desired concentrations and freshly prepared AdoMet (20 μM final concentration) to start the reaction in a total volume of 50 μL. After 1 hour incubation at 37° C. each well were washed three times with PBS, Tween-20 0.05%, NaCl (500 mM) and three more times with PBST. Specific fluorescent signals were detected with the methylation-sensitive restriction enzyme HpyCH4IV (NEB) as described and measured on a Perkin Elmer Envision detector. The percentage of inhibition is reported. The formula used to calculate the percentage of inhibition is [(X−Y)/X]×100, where X is the signal determined in the absence of the inhibitor and Y is the signal obtained in the presence of the inhibitor. The concentration at which 50% of efficacy of inhibition is observed (EC50) was determined by analysis of a concentration range of the tested compound in triplicates. The non-linear regression fittings with sigmoidal dose-response (variable slope) were performed with GraphPad Prism 4.03 (GraphPad Software).

[3] = tested on: KG-1 human leukemia cells; assay: Anti-proliferative activity on KG-1 cells (ATPLite); format: cell-based; details: KG-1, 96 h, treatment days 1-3, viability day 4, mean of at least two experiments, 95% confidence interval in brackets
Experimental: (§1) KG-1 and Karpas299 human leukemia cells were obtained from the ATCC (USA) and cultivated in RPMI 1640 medium (with HEPES and Glutamine, BE12-115F, Lonza, France) supplemented with, respectively, 20% and 15% foetal calf serum (Lonza, France), at 37° C. and under 5% CO2. To measure the anti-proliferative properties of tested molecules, 2×10^4 cells are seeded at day 0 in a 96 wells plate. The compounds to be tested, stored at −20° C. as 10^−2 M stock solution in 100% DMSO, are freshly diluted on day 1 in RPMI 1640 medium, before adding a dose range of 3.2 nM to 10 μM to the cells. This treatment is repeated on day 2 and 3, and on day 4 cell viability is assessed using the ATPLite kit from Perkin (ATPlite 1 Step Luminescence Assay System, ref 3016739), following the provider instructions. The raw data are analyzed with GraphPad Prism software (v4.03) to generate EC50 values corresponding to the compound concentrations giving 50% reduction in cell viability. The values presented are the mean results of at least two independent experiments.

[4] = tested on: Karpas299 human leukemia cells; assay: Anti-proliferative activity on Karpas 299 cells (ATPLite); format: cell-based; details: KARPAS-299, 96 h, treatment days 1-3, viability day 4, mean of at least two experiments, 95% confidence interval in brackets
Experimental: as §1

[5] = tested on: WM266.4 cells (human melanoma cells); assay: Anti-proliferative activity on WM266.4 cells (ATPlite one step); format: cell-based; details: WM 266-4, 72 h incubation, read-out: EC50 (μM) WN226.4
Experimental: (§2) The antiproliferative activity of compounds was measured in vitro using the ATP quantification method “ATPlite one step assay” (Perkin Elmer ref 6016739) according to the manufacturer conditions.
(§3) Briefly, WM266.4 cells (human melanoma cells) (5×10^4 cells per ml in RPMI1640 medium, 10% FBS, 2 mM glutamine, 50 U/mL penicillin/streptomycin and 1.25 μg/mL fungizone), PANC1 cells (human pancreatic carcinoma cells) (2×10^4 cells per ml in DMEM medium, 10% FBS, 2 mM glutamine, 50 U/mL penicillin/streptomycin and 1.25 μg/mL fungizone), and U87MG cells (human neuronal gliablastoma-astrocytoma-cells) (3×10^4 cells per ml in MEM medium, 10% FBS, 2 mM glutamine, 50 U/mL penicillin/streptomycin and 1.25 μg/mL fungizone) were seeded in 96-well plates, incubated for 24 h and treated with 8 increasing concentrations of test compounds diluted in cells respective mediums, or vehicle in triplicate.
(§4) Cells were then incubated for 72 h at 37° C. in humidified 5% CO2 atmosphere.
(§5) At the end of the experiment, cell viability was evaluated by determining the level of ATP released by viable cells.
(§6) EC50 values were determined with curve fitting analysis method (non linear regression model with a sigmoid dose response, variable Hill slope coefficient) provided by the Prism Software (GraphPad). […]

[6] = tested on: U87MG cells (human neuronal gliablastoma-astrocytoma-cells); assay: Anti-proliferative activity on U87MG cells (ATPlite one step); format: cell-based; details: U-87 MG, 72 h incubation
Experimental: as §2, §3, §4, §5, §6

[7] = tested on: PANC1 cells (human pancreatic carcinoma cells); assay: Anti-proliferative activity on PANC1 cells (ATPlite one step); format: cell-based; details: PANC-1, 72 h incubation
Experimental: as §2, §3, §4, §5, §6

inhibition at 32 µM [1] [%] | inhibition at 100 µM [1] [%] | inhibition at 10 µM [2] [%] | inhibition at 20 µM [2] [%] | EC50 [2] [µM] | EC50 [3] [µM] | EC50 [4] [µM] | EC50 [5] [µM] | EC50 [6] [µM] | EC50 [7] [µM] | inhibition at 32 µM [2] [%] | SMILES
24.5 | 91.2 | 81 | 97 | 2.4 | 0.5 | 1.8 | 3.9 | 8.9 | 1.2 |  | c1ccc(CCCNc2ncnc3cc(OCC4CCN(CCNc5ccnc6ccccc56)CC4)ccc23)cc1 [Compound G, 4-((3-phenylpropyl)amino)-7-((1-(2-(quinolin-4-ylamino)ethyl)piperidin-4-yl)methoxy)quinazoline]
 | 94.9 | 28 | 44 |  |  |  |  |  |  | 69 | CCCNc1ncnc2cc(OCC3CCN(CCNc4ccnc5ccccc45)CC3)ccc12 [Compound H, 4-propylamino-7-((1-(2-(quinolin-4-ylamino)ethyl)piperidin-4-yl)methoxy)quinazoline]
 | 99.3 | 16 | 32 |  |  |  |  |  |  | 68 | Nc1ncnc2cc(OCC3CCN(CCNc4ccnc5ccccc45)CC3)ccc12 [Compound I, 4-amino-7-((1-(2-(quinolin-4-ylamino)ethyl)piperidin-4-yl)methoxy)quinazoline]
 | 33.7 | 47 | 65 |  |  |  |  |  |  | 72 | c1ccc(CCCNc2ncnc3cc(OCC4CCN(CCNc5ccncc5)CC4)ccc23)cc1 [Compound J, 4-(3-phenylpropylamino)-7-((1-(2-(pyridin-4-ylamino)ethyl)piperidin-4-yl)methoxy)quinazoline]
100 | 100 | 89 |  | 1.1 | 1.3 | 0.7 |  |  |  | 91 | O=c1c2ccc(OCC3CCN(CCNc4ccnc5ccccc45)CC3)cc2ncn1CCNc1ccnc2ccccc12 [Compound M]
24 | 69 | 86 |  |  | 0.4 |  |  |  |  | 83 | c1ccc(-c2ccc(CNc3ncnc4cc(OCC5CCN(CCNc6ccnc7ccccc67)CC5)ccc34)cc2)cc1 [Compound N, 4-([1,1′-biphenyl]-4-ylmethylamino)-7-((1-(2-(quinolin-4-ylamino)ethyl)piperidin-4-yl)methoxy)quinazoline]
38 | 98.4 | 80 |  |  |  |  |  |  |  | 99 | c1ccc(CCNc2ncnc3cc(OCC4CCN(CCNc5ccnc6ccccc56)CC4)ccc23)cc1 [Compound O, 4-(3-phenethylamino)-7-((1-(2-(quinolin-4-ylamino)ethyl)piperidin-4-yl)methoxy)quinazoline]
26 | 22 | 43 |  | 13.1 |  |  |  |  |  | 81 | c1ccc(CNc2ncnc3cc(OCC4CCN(CCNc5ccnc6ccccc56)CC4)ccc23)cc1 [Compound P, 4-(3-benzylamino)-7-((1-(2-(quinolin-4-ylamino)ethyl)piperidin-4-yl)methoxy)quinazoline]
74 | 99.6 | 61 |  | 5.7 |  |  |  |  |  | 68 | Cc1cc(NCCNc2ncnc3cc(OCC4CCN(CCNc5ccnc6ccccc56)CC4)ccc23)nc(N)n1 [Compound Q, 6-methyl-N^4-(2-((7-((1-(2-(quinolin-4-ylamino)ethyl)piperidin-4-yl)methoxy)quinazolin-4-yl)amino)ethyl)pyrimidine-2,4-diamine]
45 | 98.4 | 65 |  |  |  |  |  |  |  | 99 | O=c1c2ccc(OCC3CCN(CCNc4ccnc5ccccc45)CC3)cc2ncn1CCCc1ccccc1 [Compound R, 3-(3-phenylpropyl)-7-((1-(2-(quinolin-4-ylamino)ethyl)piperidin-4-yl)methoxy)quinazolinone]
 | 90 | 52 |  |  |  |  |  |  |  | 95 | c1ccc(CCCNc2ncnc3cc(OCCNc4ccnc5ccccc45)ccc23)cc1 [Compound S, 4-(3-phenylpropylamino)-7-(2-(quinolin-4-ylamino)ethoxy)quinazoline]
